Test results published in patent publication US20240277717A1, “APPLICATION OF GANCICLOVIR IN PREPAPRATION OF MEDICINE FOR TREATING ALLERGIC RHINITIS” (Union Hospital, Tongji Medical College, Huazhong University …, priority 2023, published 2024).

What was measured:
[1] = system: eosinophils in nasal secretions; test: Nasal secretion smears, percentage of eosinophils in inflammatory cells; format: in vivo, human
Text: The patients blow their nose (both sides), or gently rotate a glass rod at a front end of the patients' nasal vestibule to obtain the nasal secretions, avoiding rubbing the mucosal surface as much as possible. The obtained nasal secretions are evenly and lightly coated on slides, and a coverage area of the nasal secretion smear is required to exceed ⅔ of the slides. After natural air drying, the slides are dyed with Wright-Giemsa stain (Baso Diagnostics Inc. Zhuhai; China). After dyeing, cells are counted under an optical microscope. A percentage of eosinophils in inflammatory cells under 10×100 times microscope is observed, and an average value of 5 visual fields is taken as a result.

[2] = system: EB virus, human-cytomegalovirus, HSV 1, 2, 3, 6, 7, 8; test: DNA virus sequence enrichment analysis of nasal scraping cells; format: in vivo; settings: GCV effective group
Experimental: (§1) The scraped mucosal epithelial cells are placed in a TRIzol™ reagent (Invitrogen™) and stored in liquid nitrogen for processing. Library preparation and high-throughput sequencing, data analysis, ribonucleic acid (RNA) sequence and deoxyribonucleic acid (DNA) virus sequence enrichment analysis are performed by Seqhealth Technology Co., Ltd. (China; wuhan). Sample quality analysis is performed by Nanodrop™ OneC spectrophotometer to detect expression at A260 and A280. Qualified samples are finally quantified by QubitR®3.0 fluorometer and Qubit™ RNA broad-range (BR) Assay kits. The original data is first filtered by Trimomatic (Version 0.36). Counting by FeatureCounts, and then calculate reads per kilobase of exon model per million mapped reads (RPKM). Differentially expressed genes between groups are identified using an edgeR package (Version 3.12.1). In analysis, P value<0.05 and fold change (FC) higher than 2 are considered to be significant differences in gene expression between groups.

nasal scraping cells = test: Transcriptome sequencing (RNA-seq) of nasal scraping cells; format: in vivo, human
Experimental: as §1

[3] = system: Eosinophil cationic protein (ECP); test: ECP in the nasal secretions by ELISA; format: in vivo, human
Experimental: (§2) Two pieces of 1.0 centimeter (cm)×1.5 cm sterile medical sponge are gently placed into the patient's bilateral nasal cavity for 1-5 minutes (min). After the sponge adsorbs enough the nasal secretions, the sponge is gently removed and put into a 2 milliliters (mL) syringe. The nasal secretions are squeezed out and collected in a 1.5 mL centrifuge tube, centrifuged at 3000 revolutions per minute (rpm) for 5 min, and the supernatant is taken and placed in a refrigerator at −80° C. for testing. Eosinophil cationic protein (ECP) in the nasal secretions is detected by enzyme-linked immunosorbent assay (ELISA). The ECP-ELISA kit is from Zhongmin Taike Biotechnology Co., Ltd. Cytokine levels of interleukin (IL)-2, IL-4, IL-5, IL-6, IL-13, IL-17A, IL-28A, IL-33, interferon (IFN)-α, IFN-β, IFN-γ, IFN-λ, and Eotaxin in the nasal secretions are measured by using Luminex (R&D; LXSAHM-13).

[4] = system: IL-2, IL-4, IL-5, IL-6, IL-13, IL-17A, IL-28A, IL-33, IFN-α, IFN-β, IFN-γ, IFN-λ, Eotaxin in the nasal secretions; test: Cytokine levels in the nasal secretions measured by Luminex; format: in vivo, human; settings: for IL-2 in nasal secretions, after treatment: mean ± SD
Experimental: as §2

[5] = GCV effective group and GCV ineffective group
[6] = GCV effective group n=6, before vs after, P<0.05 and FC>2
[7] = GCV effective group n=6, nasal scraping cells

Question: With `Nc1nc(O)c2ncn(COC(CO)CO)c2n1` [GCV, Ganciclovir] as the compound, how does the “percentage of eosinophils in nasal secretions, change after GCV treatment” value [1, 5] read?
Answer: no significant change

Question: And the “Nasal secretion eosinophils, after treatment” value ([1]; GCV effective group, before 90.54 ± 6.24)?
Answer: 93.23 ± 11.99%

Question: And the “Nasal secretion eosinophils, after treatment” value ([1]; GCV ineffective group, before 56 ± 46.30)?
Answer: 54 ± 44.54%

Question: And the “enrichment of genes of EB virus, human-cytomegalovirus, HSV 1, 2, 3, 6, 7, 8 before and after GCV treatment (FIG. 3B)” value [2]?
Answer: no statistical difference

Question: What about the “genes down-regulated after GCV treatment” value (nasal scraping cells; [6]) of the same compound?
Answer: 160 genes

Question: What about the “genes up-regulated after GCV treatment” value (nasal scraping cells; [6]) of the same compound?
Answer: 25 genes

Question: What about the “CXCL9 expression after GCV treatment” value (nasal scraping cells; [7]) of the same compound?
Answer: up-regulated

Question: And the “CXCL10 expression after GCV treatment” value (nasal scraping cells; [7])?
Answer: up-regulated

Question: What about the “MUC5B expression after GCV treatment” value (nasal scraping cells; [7]) of the same compound?
Answer: down-regulated

Question: And the “ECP in nasal secretions, change after GCV treatment” value [3, 5]?
Answer: no significant change

Question: What about the “ECP in nasal secretions, after treatment” value ([3]; GCV effective group, before 42.38 ± 41.04) of the same compound?
Answer: 20.18 ± 18.42 µg/mL

Question: What about the “ECP in nasal secretions, after treatment” value ([3]; GCV ineffective group, before 82 ± 18.01) of the same compound?
Answer: 45.993 ± 37.12 µg/mL

Question: And the “all cytokines and inflammatory factors in nasal secretions, change after GCV treatment” value [4, 5]?
Answer: do not change

Question: What about the “IFN-β in nasal secretions, after treatment” value ([4]; GCV effective group, before 26.49 ± 26.34) of the same compound?
Answer: 38.86 ± 54.29 pg/mL

Question: What about the “IFN-α in nasal secretions, after treatment” value ([4]; GCV effective group, before 31.09 ± 28.65) of the same compound?
Answer: 32.77 ± 23.83 pg/mL

Question: What about the “IL-6 in nasal secretions, after treatment” value ([4]; GCV effective group, before 39.10 ± 34.59) of the same compound?
Answer: 30.44 ± 27.04 pg/mL

Question: What about the “IL-17A in nasal secretions, after treatment” value ([4]; GCV effective group, before 55.38 ± 27.4) of the same compound?
Answer: 58.92 ± 43.93 pg/mL

Question: And the “IL-4 in nasal secretions, after treatment” value ([4]; GCV effective group, before 109.67 ± 23.95)?
Answer: 105.32 ± 25.44 pg/mL

Question: What about the “IFN-γ in nasal secretions, after treatment” value ([4]; GCV effective group, before 181.83 ± 266.06) of the same compound?
Answer: 120.24 ± 116.93 pg/mL

Question: And the “IL-5 in nasal secretions, after treatment” value ([4]; GCV effective group, before 197.49 ± 388.67)?
Answer: 134.24 ± 172.57 pg/mL

Question: And the “Eotaxin in nasal secretions, after treatment” value ([4]; GCV effective group, before 206.5 ± 212.85)?
Answer: 153.51 ± 101.87 pg/mL

Question: What about the “IL-33 in nasal secretions, after treatment” value ([4]; GCV effective group, before 277.39 ± 303.34) of the same compound?
Answer: 293.62 ± 396.68 pg/mL

Question: And the “IFN-λ in nasal secretions, after treatment” value ([4]; GCV effective group, before 313.99 ± 194.7)?
Answer: 331.23 ± 237.77 pg/mL

Question: What about the “IL-13 in nasal secretions, after treatment” value ([4]; GCV effective group, before 455.81 ± 190.16) of the same compound?
Answer: 397.80 ± 116.61 pg/mL

Question: And the “IL-28A in nasal secretions, after treatment” value ([4]; GCV effective group, before 718.08 ± 263.12)?
Answer: 740.68 ± 214.99 pg/mL

Question: What about the “IL-2 in nasal secretions, after treatment” value ([4]; GCV effective group, before 148.69 ± 43.59) of the same compound?
Answer: 132.85 ± 40.51 pg/mL

Question: And the “IFN-β in nasal secretions, after treatment” value ([4]; GCV ineffective group, before 19.58 ± 12.05)?
Answer: 17.86 ± 8.57 pg/mL

Question: And the “Eotaxin in nasal secretions, after treatment” value ([4]; GCV ineffective group, before 36.79 ± 25.41)?
Answer: 50.35 ± 47.92 pg/mL

Question: What about the “IL-6 in nasal secretions, after treatment” value ([4]; GCV ineffective group, before 49.62 ± 10.4) of the same compound?
Answer: 65.53 ± 44.86 pg/mL

Question: And the “IL-17A in nasal secretions, after treatment” value ([4]; GCV ineffective group, before 59.88 ± 40.6)?
Answer: 48.13 ± 18.73 pg/mL

Question: And the “IFN-γ in nasal secretions, after treatment” value ([4]; GCV ineffective group, before 106.77 ± 51.92)?
Answer: 80.25 ± 44.49 pg/mL

Question: And the “IFN-α in nasal secretions, after treatment” value ([4]; GCV ineffective group, before 129.83 ± 170.32)?
Answer: 57.51 ± 49.01 pg/mL

Question: And the “IL-4 in nasal secretions, after treatment” value ([4]; GCV ineffective group, before 151.81 ± 71.34)?
Answer: 116.44 ± 53.74 pg/mL

Question: What about the “IL-5 in nasal secretions, after treatment” value ([4]; GCV ineffective group, before 218.52 ± 189.78) of the same compound?
Answer: 70.26 ± 57.39 pg/mL

Question: What about the “IFN-λ in nasal secretions, after treatment” value ([4]; GCV ineffective group, before 371.83 ± 248.73) of the same compound?
Answer: 363.86 ± 203.72 pg/mL

Question: And the “IL-13 in nasal secretions, after treatment” value ([4]; GCV ineffective group, before 382.32 ± 104.87)?
Answer: 282.34 ± 55.29 pg/mL

Question: And the “IL-28A in nasal secretions, after treatment” value ([4]; GCV ineffective group, before 392.09 ± 218.69)?
Answer: 447.41 ± 202.35 pg/mL

Question: And the “IL-33 in nasal secretions, after treatment” value ([4]; GCV ineffective group, before 583.28 ± 515.20)?
Answer: 436.61 ± 500.63 pg/mL

Question: And the “IL-2 in nasal secretions, after treatment” value ([4]; GCV ineffective group, before 139.75 ± 59.26)?
Answer: 125.13 ± 58.88 pg/mL
